{
  "source": "ChEMBL document CHEMBL1155845",
  "about": "“Novel terphenyls and 3,5-diaryl isoxazole derivatives endowed with growth supporting and antiapoptotic properties” (J Med Chem, 2008)",
  "key": {"[1]": {"system": "HL-60", "experiment": "Growth inhibition of human HL60 cells after 48 hrs by trypan blue assay", "assay_type": "functional, cell-based", "settings": "HL-60, 48 h"}, "[2]": {"system": "HL-60", "experiment": "Growth inhibition of human HL60 cells at greater than 10 uM after 48 hrs by trypan blue assay", "assay_type": "functional, cell-based"}, "[3]": {"system": "HL-60", "experiment": "Enhancement of human HL60 cells growth at less than 10 uM after 48 hrs by trypan blue assay", "assay_type": "functional, cell-based"}, "[4]": {"system": "HL-60", "experiment": "Antiproliferative activity against human HL60 cells after 72 hrs in serum free medium", "assay_type": "functional"}, "[5]": {"system": "HL-60", "experiment": "Enhancement of human HL60 cells growth at 1 uM after 72 hrs in serum free medium", "assay_type": "functional, cell-based"}, "[6]": {"system": "HL-60", "experiment": "Enhancement of human HL60 cells growth at 2.5 uM after 72 hrs in serum free medium", "assay_type": "functional, cell-based"}, "[7]": {"system": "HL-60", "experiment": "Antiapoptotic activity in human HL60 cells after 72 hrs in serum free medium relative to control", "assay_type": "functional"}, "[8]": {"system": "HL-60", "experiment": "Growth inhibition of human HL60 cells at 2.5 uM after 72 hrs in serum free medium", "assay_type": "functional, cell-based"}, "[9]": {"system": "HL-60", "experiment": "Growth inhibition of human HL60 cells at 5 after 72 hrs in serum free medium", "assay_type": "functional, cell-based"}, "[10]": {"system": "HL-60", "experiment": "Enhancement of human HL60 cells growth assessed as promotion of G1 to S transition at 2.5 uM after 24 hrs by flow cytometry", "assay_type": "functional, cell-based"}, "[11]": {"system": "HL-60", "experiment": "Enhancement of human HL60 cells growth at 5 uM after 72 hrs in serum free medium", "assay_type": "functional, cell-based"}, "[12]": {"system": "HL-60", "experiment": "Antiapoptotic activity in human HL60 cells at 2.5 to 5 uM after 72 hrs in serum free medium relative to control", "assay_type": "functional"}, "[13]": {"system": "HL-60", "experiment": "Inhibition of daunorubicin-induced apoptosis in human HL60 cells at 2.5 uM after 48 hrs", "assay_type": "functional, cell-based"}},
  "note": "The source made the active and inactive calls. The rule behind the calls is not given here.",
  "data": [
    {"smiles": "O=C(O)c1ccc(-c2cc(-c3ccc(O)c(C45CC6CC(CC(C6)C4)C5)c3)on2)cc1", "values": [
      {"measurement": "IC50", "setting": "[1]", "value": 3, "unit": "µM"}
    ]},
    {"smiles": "O=C(O)c1ccc(-c2cccc(-c3ccc(O)c(C45CC6CC(CC(C6)C4)C5)c3)c2)cc1", "values": [
      {"measurement": "Activity", "setting": "[2]", "value": "Active"}
    ]},
    {"smiles": "O=[N+]([O-])c1ccc(-c2cc(-c3ccc(O)c(C45CC6CC(CC(C6)C4)C5)c3)on2)cc1", "values": [
      {"measurement": "Activity", "setting": "[2]", "value": "Active"},
      {"measurement": "Activity", "setting": "[3]", "value": "Active"},
      {"measurement": "growth inhibition (GI)", "setting": "[4]", "value": 70, "unit": "%"},
      {"measurement": "Activity", "setting": "[5]", "value": "Active"},
      {"measurement": "Activity", "setting": "[6]", "value": "Active"}
    ]},
    {"smiles": "COc1cc(-c2cccc(-c3ccc(C(=O)O)cc3)c2)cc(OC)c1OC", "values": [
      {"measurement": "Activity", "setting": "[7]", "value": 17, "unit": "%"}
    ]},
    {"smiles": "O=C(O)c1ccc(C2=NOC(c3ccc(O)c(C45CC6CC(CC(C6)C4)C5)c3)C2)cc1", "note": "(stereo not drawn)", "values": [
      {"measurement": "Activity", "setting": "[2]", "value": "Active"},
      {"measurement": "Activity", "setting": "[3]", "value": "Active"},
      {"measurement": "growth inhibition (GI)", "setting": "[4]", "value": 70, "unit": "%"},
      {"measurement": "Activity", "setting": "[8]", "value": "Active"},
      {"measurement": "Activity", "setting": "[9]", "value": "Active"}
    ]},
    {"smiles": "COc1cc(-c2ccc(-c3ccc(C(=O)O)cc3)cc2)cc(OC)c1OC", "values": [
      {"measurement": "Activity", "setting": "[7]", "value": 18, "unit": "%"}
    ]},
    {"smiles": "O=[N+]([O-])c1ccc(-c2cc(-c3ccc(O)c(C45CC6CC(CC(C6)C4)C5)c3)no2)cc1", "values": [
      {"measurement": "Activity", "setting": "[2]", "value": "Active"},
      {"measurement": "Activity", "setting": "[3]", "value": "Active"},
      {"measurement": "Activity", "setting": "[10]", "value": "Active"},
      {"measurement": "growth inhibition (GI)", "setting": "[4]", "value": 70, "unit": "%"},
      {"measurement": "Activity", "setting": "[11]", "value": "Active"},
      {"measurement": "Activity", "setting": "[12]", "value": 10, "unit": "%"},
      {"measurement": "Activity", "setting": "[13]", "value": "Active"}
    ]},
    {"smiles": "O=C(O)c1ccc(-c2ccc(-c3ccc(O)c(C45CC6CC(CC(C6)C4)C5)c3)cc2)cc1", "values": [
      {"measurement": "Activity", "setting": "[2]", "value": "Active"}
    ]},
    {"smiles": "O=C(O)c1ccc(-c2ccccc2-c2ccc(O)c(C34CC5CC(CC(C5)C3)C4)c2)cc1", "values": [
      {"measurement": "IC50", "setting": "[1]", "value": 8, "unit": "µM"}
    ]}
  ]
}
